A short description of series [1]: RP-HPLC retention on XTerra RP18, methanol/buffer; extrapolated retention factor log kw and slope S. The class given is physicochemical. To be noted: for log kw: intercept, extrapolated to 100 % buffer, methanol/buffer, 25 °C; for S (slope): slope of log k vs methanol volume fraction.
Experimental: All measurements were performed at 25°C with a constant flow rate of 0.8 mL min^-1 and UV detection in the range of 200-280 nm. The injection volume was 20 μL. […] The retention factor k was calculated for each mobile phase composition according to Equation (1):
where tr is the retention time of the tested compound and t0 is the dead volume measured with KNO3 as a non-retentive marker. The values corresponding to 100 % of the buffered eluent (log kw) were determined by extrapolation according to Equation (2):
where log kw is the intercept, S is the slope of the regression line, and φ is the volume fraction of the organic modifier in the mobile phase.
The retention behaviour in HPLC system was monitored by calculating extrapolated retention factors log kw corresponding to pure buffer as mobile phase.
The nature of series [2]: Capillary electrophoresis, effective electrophoretic mobility (acetone as EOF marker). To be noted: for µeff4.4: pH 4.4; for µeff4.4 / µeff7.4 / µeff9.1: I = 25 mmol/L, 11 kV, 25 °C, three replicates; for µeff9.1 / μeff9.1 (effective electrophoretic mobility): pH 9.1. The class given is physicochemical.
Experimental: All experiments were performed using the SpectraPhoresis 500-capillary electrophoresis system (Spectra Physics Analytical, USA) with UV detector. Data were recorded and analyzed using ChromQuest software version 4.0 (Thermo Finnigan, USA).
The separations were performed with an uncoated fused capillary (total length 31.5 cm, 50 μm id, effective length 24 cm, Polymicro Technologies, USA) applying a voltage of 11 kV and at 25 °C. The samples were injected hydrodynamically and detection was performed in the 200-280 nm range. The new capillary was rinsed stepwise with 0.1 M NaOH (15 min), water (10 min) and a running buffer (10 min). Finally, a 10 min high voltage was applied through the background electrolyte-filled capillary to equalize the inner surface, stabilize the electroosmotic flow and ensure good reproducibility of injections from run to run. […] Between runs, the capillary was rinsed with the background electrolyte for 1 minute.
where Lt is the total length of the capillary (cm), Leff is the effective length of the capillary (cm), U is the applied voltage (V), tm is the migration time of the analyte (s) and teof is the migration time of the electroneutral EOF marker acetone (s). The calculated μeff values (μeff4.4, μeff7.4 and μeff9.1) were used as dependent variables in QSMR analysis.
For series [3] the following is noted: cited from earlier work.
[4] abbreviates: pH-spectrophotometric, ref 14 (Supplement reference list).
The mark [5] stands for this setting: pH titration, ref 4 (Supplement reference list).

Each structure is given as a SMILES string. Where a name gives a salt, the structure may show the parent alone. Read-outs that look alike come from different tables or passages of the source.

Regarding `CNC[C@H](O)c1cccc(O)c1` [Phenilephrine, Phenilephrine hydrochloride], in series [1] (pH 4.4), the log kw is recorded as 0.09 ± 0.02 and the “S (slope)” value was -2.53 ± 0.14. Besides, in series [1] (pH 4.4, listed as phenilephrine), the log kw is 0.09. Further, in series [1] (pH 7.4), the log kw was 0.04 ± 0.01 and the “S (slope)” value is -2.62 ± 0.06. Further, in series [1] (pH 9.1), the log kw is 0.39 ± 0.02 and the “S (slope)” value is listed as -2.00 ± 0.06. Further, in series [2], the µeff4.4 was 25.780 ± 0.006 10^-5 cm^2 V^-1 s^-1 and the µeff9.1 was 8.661 ± 0.036 10^-5 cm^2 V^-1 s^-1. Moreover, the µeff7.4 in series [2] (pH 7.4) is on record as 21.650 ±0.195 10^-5 cm^2 V^-1 s^-1. Also, in series [3] (setting [4]), the “pKa experimental (first of two printed values)” value is given as 9.17; the “pKa experimental (second of two printed values)” value was 9.17 and 10.45 (pH-spectrophotometric) [14 ].

Turning to `c1ccc2c(c1)CCCC2C1=NCCN1` (stereo not drawn) [Tetrahydrozoline, tetrahydrozoline hydrochloride], in series [1] (pH 4.4), the log kw is listed as 1.06 ± 0.02 and the “S (slope)” value was -2.94 ± 0.05. Moreover, in series [1] (pH 7.4), the log kw was 1.08 ± 0.01 and the “S (slope)” value is -3.24 ± 0.06. For the same compound, in series [1] (pH 9.1), the log kw is listed as 1.32 ± 0.03 and the “S (slope)” value is reported as -2.99 ± 0.07. Besides, in series [2], the µeff4.4 is given as 25.680 ± 0.049 10^-5 cm^2 V^-1 s^-1, the “μeff9.1 (effective electrophoretic mobility)” value is on record as 25.05 10^-5 cm^2 / V s and the µeff9.1 is 25.047 ± 0.066 10^-5 cm^2 V^-1 s^-1. For the same compound, the µeff7.4 in series [2] (pH 7.4) is 24.299 ± 0.057 10^-5 cm^2 V^-1 s^-1. Moreover, the pKa experimental in series [3] (setting [5]) is listed as 10.51 ± 0.05.

In the case of `c1cc2c(c(NC3=NCCN3)c1)CCCC2` [Tramazoline, Tramazoline hydrochloride], in series [1] (pH 4.4), the log kw was 1.55 ± 0.03 and the “S (slope)” value is reported as -3.43 ± 0.07. In series [1] (pH 7.4), the log kw was 1.51 ± 0.01 and the “S (slope)” value is given as -3.51 ± 0.06. Moreover, in series [1] (pH 9.1), the log kw is on record as 1.74 ± 0.01 and the “S (slope)” value is -3.37 ± 0.03. In series [2], the µeff4.4 is reported as 24.393 ± 0.067 10^-5 cm^2 V^-1 s^-1 and the µeff9.1 is listed as 23.713 ± 0.031 10^-5 cm^2 V^-1 s^-1. In addition, the µeff7.4 in series [2] (pH 7.4) is given as 22.988 ± 0.060 10^-5 cm^2 V^-1 s^-1. Moreover, the pKa experimental in series [3] (setting [5]) is 10.66 ± 0.05.

Regarding `Nc1nc(N)c2nc(-c3ccccc3)c(N)nc2n1` [Triamterene, triamterene], in series [1] (pH 4.4), the log kw is 1.75 ± 0.05 and the “S (slope)” value is given as -3.96 ± 0.14. Besides, in series [1] (pH 7.4), the log kw is reported as 1.92 ± 0.05 and the “S (slope)” value is -3.76 ± 0.12. Further, in series [1] (pH 9.1), the log kw is 1.93 ± 0.04 and the “S (slope)” value is reported as -3.75 ± 0.11. Further, in series [2], the µeff4.4 is reported as 22.146 ± 0.019 10^-5 cm^2 V^-1 s^-1, the “μeff9.1 (effective electrophoretic mobility)” value is “zero” and the µeff9.1 is 0.000 ± 0.000 10^-5 cm^2 V^-1 s^-1. Also, in series [2] (pH 7.4), the “μeff7.4 (effective electrophoretic mobility, text)” value is reported as 1.140±0.053 10^-5 cm^2 / V s and the µeff7.4 is reported as 1.140 ± 0.053 10^-5 cm^2 V^-1 s^-1. Further, in series [3] (spectrophotometric, ref 15 (Supplement reference list)), the pKa experimental is 7.16.
